{
  "source": "patent US8580787B2",
  "about": "“Compositions and methods for reducing activation of alpha-1 receptors” (Eye Therapies LLC, priority 2008, dated 2013)",
  "key": {"[1]": {"assay": "Example 2: Lasik prophylaxis, postoperative hyperemia, hemorrhage and flap dislocation", "details": "brimonidine 0.02%"}, "[2]": {"assay": "FIGS. 5A-C: induction and reversal of rebound hyperemia in a patient's eyes", "type": "in vivo, human", "details": "brimonidine at […], right eye, after VISINE Original", "excerpt": "FIG. 5A is a baseline visual appearance of two eyes of a patient with an ocular condition."}, "[3]": {"details": "brimonidine 0.01-[…] left eye vs tetrahydrozoline 0.05%, oxymetazoline […], naphazoline […] right eye; baseline redness 4/4", "excerpt": "FIG. 4A is a baseline visual appearance of two eyes of a patient with an ocular condition.\nIn an average clinical situation, baseline redness is at 1-1.5/4."}, "[4]": {"details": "0.03% brimonidine nasal spray, 0.9% saline vehicle, n of 1"}, "[5]": {"assay": "Example 5: chronic red eyes, patient satisfaction assessment, eld brimonidine vs Naphcon-A", "type": "in vivo, human", "details": "brimonidine at […], drops twice a day for three to five weeks, seven patients, all patients", "protocol": "The treatment was through drops twice a day for three to five weeks. At the end, patient satisfaction assessment was conducted."}},
  "data": [
    {"smiles": "Brc1c(N=C2NCCN2)ccc2nccnc12.O=C(O)C(O)C(O)C(=O)O", "note": "[brimonidine, 5-bromo-6-(2-imidazolidinylideneamino)quinoxaline L-tartrate]", "values": [
      {"measurement": "cosmetic appearance vs. no vasoconstrictor and vs. Naphcon-A", "setting": "[1]; from day 1 after Lasik", "result": "much improved"},
      {"measurement": "hyperemia in the majority of the 1+ or less hyperemic group", "setting": "[1]; over 500 eyes", "result": "no or only trace hyperemia"},
      {"measurement": "effect on VISINE Original induced rebound hyperemia", "setting": "[2]", "result": "reversing the VISINE Original® induced rebound hyperemia"},
      {"measurement": "scleral whitening brightening effects", "setting": "[3]", "result": "significant scleral whitening brightening effects"},
      {"measurement": "duration of complete relief of moderate nasal congestion per application", "setting": "[4]", "result": "3 to 5", "unit": "h"},
      {"measurement": "patient-reported redness", "setting": "[5]", "result": "reduced redness"}
    ]}
  ]
}
